The Deep4Chem optical property database
Each block holds one compound with its values, some of them ahead of it.

Assay: solvent given as SMILES

absorption maximum (in C1CCOC1): 398 nm
absorption maximum (in CC#N): 390 nm
absorption maximum (in CCO): 391 nm
absorption maximum (in CCOC(C)=O): 390 nm
absorption maximum (in ClCCl): 393 nm
absorption maximum (in c1ccccc1): 397 nm
SMILES: CC1(C)CC(/C=C/c2ccc(-n3ccnc3)cc2)=CC(=C(C#N)C#N)C1

absorption maximum (in CCO): 600 nm
SMILES: Nc1ccc2nc3c4ccccc4c(=[NH2+])cc-3oc2c1

absorption maximum (in ClCCl): 331 nm
SMILES: CCOC(=O)c1c(-c2c(Cl)c3cc(C)ccc3oc2=O)nn(-c2cccc(Cl)c2)c1C(=O)OCC

absorption maximum (in CC#N): 474 nm
SMILES: Oc1ccc2ccccc2c1/C=N/c1cc2ccccc2cc1/N=C/c1c(O)ccc2ccccc12

absorption maximum (in CS(C)=O): 398 nm
SMILES: COc1ccc(-c2cc(/C=C/c3ccc(N(c4ccccc4)c4ccccc4)cc3)c(C#N)c(N3CCCCC3)c2)cc1

absorption maximum (in CC#N): 316 nm
absorption maximum (in CO): 314 nm
absorption maximum (in O): 312 nm
SMILES: CSc1ccc2c(c1)N(CCCN1CCN(C)CN1C)c1ccccc1S2

absorption maximum (in CC#N): 393 nm
absorption maximum (in CO): 395 nm
absorption maximum (in ClCCl): 399 nm
SMILES: Cc1cc(O)c(-c2[nH]c(=O)n3c2-c2ccccc2C3=O)cc1Cl

absorption maximum (in C1CCCCC1): 347 nm
absorption maximum (in C1COCCO1): 350 nm
absorption maximum (in CC#N): 348 nm
absorption maximum (in CN(C)C=O): 353 nm
absorption maximum (in CO): 352 nm
absorption maximum (in O): 351 nm
absorption maximum (in OCC(O)CO): 364 nm
absorption maximum (in OCCO): 360 nm
SMILES: O=C1NC(=O)/C(=C\c2ccccc2O)S1

absorption maximum (in ClCCl): 329 nm
SMILES: c1ccc2c(c1)-c1ccccc1[Si]21c2ccccc2-c2cc3c(cc21)-c1ccccc1[Si]31c2ccccc2-c2ccccc21

absorption maximum (in CS(C)=O): 463 nm
absorption maximum (in ClCCl): 458 nm
SMILES: CCN(CC)c1ccc2c(c1)oc(=O)c1c(=O)oc3c(C)c4oc(=O)c5c(=O)oc6cc(N(CC)CC)ccc6c5c4cc3c12

absorption maximum (in C1CCOC1): 730 nm
absorption maximum (in ClC(Cl)Cl): 731 nm
SMILES: COc1ccc(-c2cc3c(s2)=CC2=C(C(F)(F)F)c4cc5sc(-c6ccc(OC)cc6)cc5n4[B-](F)(F)[N+]=32)cc1

absorption maximum (in CC#N): 456 nm
SMILES: COc1ccc(-c2nc3ccccc3nc2/C=C/N2CCCC2)s1

absorption maximum (in CCCCCC): 558 nm
absorption maximum (in ClCCl): 562 nm
SMILES: CC(C)[Si](C#Cc1c2ccccc2c(C#C[Si](C(C)C)(C(C)C)C(C)C)c2nc3cc4c(cc3nc12)C1c2ccccc2C4c2ccccc21)(C(C)C)C(C)C

absorption maximum (in CCCCCCC): 405 nm
SMILES: c1cc2c3c(cccc3c1)-c1c-2ccc2c1ccc1ccccc12

absorption maximum (in c1ccccc1): 436 nm
SMILES: CN(C)c1ccc2nc(-c3ccccc3)c(=O)oc2c1

absorption maximum (in CC#N): 355 nm
SMILES: COC(=O)c1c(NC(C)(C)C)oc(-c2ccc(-c3ccccc3)cc2)c1C(=O)OC

absorption maximum (in ClC(Cl)Cl): 305 nm
SMILES: CCCCc1ccc(-n2c3c4cc(F)ccc4nc(-c4ccc(OC)cc4)c3c3c2c2c(-c4ccc(OC)cc4)nc4ccc(F)cc4c2n3-c2ccc(CCCC)cc2)cc1

absorption maximum (in CC#N): 380 nm
SMILES: CC(C)c1ccc(-c2nc(-c3ccccc3)c3ccccn23)cc1

absorption maximum (in ClCCl): 329 nm
SMILES: CC(C)(C)NC(=O)c1cccc2ccc3c4ccc(F)cc4c4cc(F)ccc4c3c12

absorption maximum (in CCO): 612 nm
absorption maximum (in ClC(Cl)Cl): 623 nm
absorption maximum (in O): 612 nm
SMILES: CC[N+](CC)=c1ccc2c(-c3ccccc3C(=O)O)c3c(=O)oc4c5c6c(cc4c3oc-2c1)CCCN6CCC5

absorption maximum (in ClC(Cl)Cl): 382 nm
SMILES: CC(C)(C)NC(=O)c1c([Si](C)(C)C)cc2ccc3cccc4ccc1c2c34

absorption maximum (in C1CCCCC1): 316 nm
SMILES: C[Si](C)(C)C#Cc1cccc2ccccc12

absorption maximum (in O): 387 nm
SMILES: CC1(C)C(=O)C=Cc2ccc(N3CCC3)cc21

absorption maximum (in C1CCOC1): 409 nm
SMILES: COc1cc2c(cc1-c1ccc([N+](=O)[O-])cc1)Cc1c3c(c4c(c1-2)-c1cc(OC)c(-c2ccc([N+](=O)[O-])cc2)cc1C4)C(=O)N(CCC(C)C)C3=O

absorption maximum (in O): 493 nm
SMILES: CC[n+]1nc2cc3c4c(c2c2ccccc21)CCCN4CCC3

absorption maximum (in CS(C)=O): 344 nm
SMILES: Fc1ccccc1-c1nc2sc3ccccc3c2s1

absorption maximum (in ClC(Cl)Cl): 278 nm
SMILES: c1ccc(-c2ccnc(-c3ccccc3)n2)cc1

absorption maximum (in C1CCOC1): 345 nm
SMILES: CC(C)(C)c1ccc(-c2c(-c3ccc4c5ccccc5n(-c5ccccc5)c4c3)c(C#N)c(-c3ccc4c5ccccc5n(-c5ccccc5)c4c3)c(-c3ccc(C(C)(C)C)cc3)c2-c2ccc(C(C)(C)C)cc2)cc1

absorption maximum (in CC#N): 373 nm
SMILES: Cc1ccc(-c2ccc(/C=C/c3ccc(Br)n3C)cn2)nc1

absorption maximum (in ClC(Cl)Cl): 524 nm
SMILES: O=Cc1ccc(C#CC(C#Cc2ccc(C=O)s2)=Cc2ccc(C=C(C#Cc3ccc(C=O)s3)C#Cc3ccc(C=O)s3)s2)s1

absorption maximum (in CC#N): 344 nm
SMILES: c1ccc2c(c1)nc1ccccn12

The remaining lines, values behind:

SMILES: CC(C)n1c2cc(O)c(F)cc2c(=O)c2cc(F)c(O)cc21
absorption maximum (in CCO): 379 nm

SMILES: COc1cc(OC)c2ccc(=O)oc2c1
absorption maximum (in CC(C)O): 324 nm
absorption maximum (in CCO): 324 nm
absorption maximum (in CCOCC): 318 nm
absorption maximum (in CO): 324 nm
absorption maximum (in O): 327 nm

SMILES: COc1ccc(-c2cc(-c3ccc(C)cc3)c(C#N)c(OC)n2)cc1
absorption maximum (in C1CCOC1): 339 nm
absorption maximum (in CC#N): 338 nm
absorption maximum (in CC(C)=O): 340 nm
absorption maximum (in CCCCCC): 334 nm
absorption maximum (in CCOC(C)=O): 335 nm
absorption maximum (in CN(C)C=O): 343 nm
absorption maximum (in CO): 338 nm
absorption maximum (in CS(C)=O): 344 nm
absorption maximum (in ClC(Cl)Cl): 341 nm

SMILES: CCCC1=Cc2nc1ccc1[nH]c(cc1CCO)c1nc(ccc3[nH]c2cc3CCC)C(CCC)=C1
absorption maximum (in Cc1ccccc1): 637 nm

SMILES: Cc1ccc(-c2c3nc(c(-c4ccc(C)cc4)c4ccc([nH]4)c(-c4ccc(C)cc4)c4nc(c(-c5ccc(C)cc5)c5ccc2[nH]5)C=C4N2CCOCC2)C=C3)cc1
absorption maximum (in CS(C)=O): 653 nm

SMILES: Cc1ccc(C)n1-c1ccc(C#N)cc1
absorption maximum (in C1CCOC1): 275 nm
absorption maximum (in CCCCCC): 275 nm
absorption maximum (in CCCCCl): 275 nm
absorption maximum (in CCOCC): 275 nm

SMILES: Cc1nn(-c2ccccc2)c2c1c(=O)oc1ccc(-n3c4ccccc4c4cc(-n5c6ccccc6c6ccccc65)ccc43)cc12
absorption maximum (in Cc1ccccc1): 342 nm

SMILES: CCOc1ccc(/C=C/C=C/C=C/c2ccc([N+](=O)[O-])cc2)cc1
absorption maximum (in CC1CCCCC1): 414 nm
absorption maximum (in CC#N): 412 nm
absorption maximum (in Cc1ccccc1): 419 nm
absorption maximum (in ClCCl): 420 nm

SMILES: COc1ccc(C2=[N+]3C(=Nc4c(-c5cc(OC)c(OC)c(OC)c5)c(-c5ccc(C(C)(C)C)cc5)c(-c5ccc(OC)cc5)n4[B-]3(F)F)C(c3cc(OC)c(OC)c(OC)c3)=C2c2ccc(C(C)(C)C)cc2)cc1
absorption maximum (in Cc1ccccc1): 694 nm

SMILES: CC(C)(C)c1ccc(-c2nc3ccccc3nc2-c2cc(-c3nc4ccccc4nc3-c3ccc(C(C)(C)C)cc3)cc(-n3c4ccccc4c4ccccc43)c2)cc1
absorption maximum (in Cc1ccccc1): 344 nm

SMILES: CCCC1=Cc2nc1ccc1[nH]c(cc1CCC)c1nc(c(OC(=O)CCCC(=O)OC(C)(C)C)cc3[nH]c2cc3CCC)C(CCC)=C1
absorption maximum (in Cc1ccccc1): 645 nm

SMILES: c1csc(-c2cnc(-c3cccs3)c3nonc23)c1
absorption maximum (in C1CCCCC1): 461 nm
absorption maximum (in CC(C)=O): 461 nm
absorption maximum (in CCCCCC): 458 nm
absorption maximum (in CCCO): 466 nm
absorption maximum (in CCO): 460 nm
absorption maximum (in CCOCC): 462 nm
absorption maximum (in CO): 460 nm
absorption maximum (in Cc1ccccc1): 465 nm
absorption maximum (in ClC(Cl)(Cl)Cl): 465 nm
absorption maximum (in ClC(Cl)Cl): 464 nm
absorption maximum (in Nc1ccccc1): 474 nm
absorption maximum (in O=[N+]([O-])c1ccccc1): 476 nm
absorption maximum (in OCC(O)CO): 471 nm
absorption maximum (in OCc1ccccc1): 473 nm
absorption maximum (in c1ccc2ncccc2c1): 477 nm
absorption maximum (in c1ccccc1): 465 nm
absorption maximum (in c1ccncc1): 472 nm

SMILES: c1cc2ccc3ccc4cc3c2cc1c1ccc2ccc3ccc(cc3c2c1)c1ccc2c(c1)c1cc4ccc1[C@]13OCCO[C@]21OCCO3
absorption maximum (in Cc1ccccc1): 366 nm

SMILES: Cc1c2c(c(C)c3ccccc13)C1=C2C=CC2Nc3ccccc3NC12 (stereo not given)
absorption maximum (in ClC(Cl)Cl): 437 nm

SMILES: c1ccc(-c2cc(-c3ccc(N4c5ccccc5C(c5ccccc5)(c5ccccc5)c5ccccc54)cn3)nc(-c3ccccc3)n2)cc1
absorption maximum (in Cc1ccccc1): 378.85 nm

SMILES: O=C(O)c1ccccc1-c1nc(-c2ccccc2)c2ccccn12
absorption maximum (in CC#N): 357 nm

SMILES: CN1c2ccc(C(=O)c3ccccc3)cc2Sc2cc(C(=O)c3ccccc3)ccc21
absorption maximum (in C1CCCCC1): 390 nm
absorption maximum (in C1CCOC1): 402 nm
absorption maximum (in CN(C)C=O): 407 nm
absorption maximum (in Cc1ccccc1): 405 nm
absorption maximum (in ClC(Cl)Cl): 407 nm
absorption maximum (in ClCCl): 408 nm

SMILES: O=C(O)C1=C(C(=O)O)C2=C[C@H]3c4ccccc4[C@]2([Se]1)c1ccccc13
absorption maximum (in ClCCl): 421 nm

SMILES: O=C1/C(=C2\Sc3ccc(S(=O)(=O)Nc4ccccc4)cc3C2=O)Sc2ccc(S(=O)(=O)Nc3ccccc3)cc21
absorption maximum (in C1COCCO1): 534 nm
absorption maximum (in CN(C)C=O): 542 nm
absorption maximum (in CO): 536 nm
absorption maximum (in CS(C)=O): 546 nm

SMILES: CC/[NH+]=c1\cc2oc3cc(NCCC(=O)O)c4ccccc4c3nc-2cc1C
absorption maximum (in CCO): 590 nm
absorption maximum (in O): 580 nm

SMILES: CC(=O)Nc1ccc(S(=O)(=O)O)c(/N=N/c2c(O)c3ccccc3n(C)c2=O)c1
absorption maximum (in C1CCOC1): 435 nm
absorption maximum (in CC(C)=O): 425 nm
absorption maximum (in CCOC(C)=O): 434 nm
absorption maximum (in CO): 423 nm
absorption maximum (in CS(C)=O): 428 nm
absorption maximum (in Cc1ccccc1): 437 nm
absorption maximum (in ClCCl): 435 nm
absorption maximum (in O): 417 nm

SMILES: Cc1ccc(C2=C3C=CC(/C=C/c4ccccc4)=[N+]3[B-](F)(F)n3c(Cl)ccc32)cc1
absorption maximum (in C1CCCCC1): 569 nm
absorption maximum (in C1CCOC1): 568 nm
absorption maximum (in C1COCCO1): 569 nm
absorption maximum (in CCOC(C)=O): 565 nm
absorption maximum (in CO): 564 nm
absorption maximum (in Cc1ccccc1): 572 nm
absorption maximum (in ClC(Cl)Cl): 571 nm

SMILES: CC(C)(C)c1cc2c(c(C(C)(C)C)c1)O[B-](F)(F)[n+]1c-2nc(-c2ccccc2)c2cc(Cl)ccc21
absorption maximum (in Cc1ccccc1): 420 nm

SMILES: COc1ccc(-c2nc(-c3ccccc3)c(-c3ccccc3)[nH]2)cc1
absorption maximum (in CO): 305 nm

SMILES: CCOC(=O)CN1C(=O)C2=C(c3ccc(N4CCCCC4)cc3)N(CC(=O)OCC)C(=O)C2=C1c1ccc(N2CCCCC2)cc1
absorption maximum (in CC#N): 523 nm
absorption maximum (in CS(C)=O): 540 nm
absorption maximum (in Cc1ccccc1): 520 nm
